Results: US20260250318A1, “COMPOSITIONS AND METHODS FOR CROSSING THE BLOOD BRAIN BARRIER” (VOYAGER THERAPEUTICS, INC., priority 2022, published 2026)

Legend:
brain = experiment: Matured TTM-001 and TTM-002 variants, NGS enrichment in mouse brain; type: in vivo, mice; details: relative to AAV9 control
[1] = system: brains, heart, liver, muscle, and DRG of the NHPs; experiment: Maturation of TTM-001 and TTM-002 capsids, NGS enrichment in NHP tissues; type: in vivo; details: relative to AAV9 control
Outline: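 Variants carry mutations within and flanking the loop IV peptide insert: positions 450–466 were triplet-randomized, while positions 449–466 received low-frequency point mutations. The combined pool went into two NHPs, and each peptide was scored by NGS enrichment ratio against AAV9.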

[2] = NGS fold-enrichment of matured AAV capsid variants, NHP brain, RNA
[3] = NGS fold-enrichment, brain of mice
[4] = NGS fold-enrichment, DRG of NHPs
[5] = NGS fold-enrichment, RNA, brain of NHPs
[6] = NGS fold-enrichment, heart of NHPs
[7] = NGS fold-enrichment, liver DNA of NHPs
[8] = NGS fold-enrichment, liver RNA of NHPs
[9] = NGS fold-enrichment, muscle of NHPs
[10] = NGS fold-enrichment, mouse brain
[11] = NGS fold-enrichment of RNA, NHP brain
[12] = NGS fold-enrichment, NHP liver DNA
[13] = NGS fold-enrichment, NHP liver RNA
[14] = NGS fold-enrichment, NHP muscle

| Sequence | Fold Enrichment relative to AAV9, Brain (Mouse) (brain; mouse brain) [fold] | Fold Enrichment relative to AAV9, Brain (NHP) [1, 2] [fold] | Fold Enrichment relative to AAV9, DRG (NHP) ([1]; NHP DRG) [fold] | Fold Enrichment relative to AAV9, Heart (NHP) ([1]; NHP heart) [fold] | Fold Enrichment relative to AAV9, Liver DNA (NHP) ([1]; NHP liver, DNA) [fold] | Fold Enrichment relative to AAV9, Liver RNA (NHP) ([1]; NHP liver, RNA) [fold] | Fold Enrichment relative to AAV9, Muscle (NHP) ([1]; NHP muscle) [fold] | Fold Enrichment relative to AAV9, Brain (Mouse) (brain; [3]) [fold] | Fold Enrichment relative to AAV9, DRG (NHP) [1, 4] [fold] | Fold Enrichment relative to AAV9, Brain (NHP) [1, 5] [fold] | Fold Enrichment relative to AAV9, Heart (NHP) [1, 6] [fold] | Fold Enrichment relative to AAV9, Liver DNA (NHP) [1, 7] [fold] | Fold Enrichment relative to AAV9, Liver RNA (NHP) [1, 8] [fold] | Fold Enrichment relative to AAV9, Muscle (NHP) [1, 9] [fold] | further results |
| --- | --- | --- | --- | --- | --- | --- | --- | --- | --- | --- | --- | --- | --- | --- | --- |
| KTINGSGSPHSKARGLQT | 169.881 | 52.275 | 0.000 | 0.000 | 1.425 | 1.235 | 0.036 | – | – | – | – | – | – | – | – |
| KTDKVSGSPHSKAQNQQT | – | – | – | – | – | – | – | 146.657 | 0.000 | 60.935 | 0.015 | 0.128 | 0.765 | 0.000 | – |
| KTTNGSGSPHSKAHNQLT | – | – | – | – | – | – | – | 65.505 | 0.000 | 69.062 | 0.000 | 0.000 | 0.708 | 0.000 | – |
| KTINGSGSPHSKASPRQT | 67.241 | 50.227 | 0.088 | 0.005 | 0.530 | 1.761 | 0.068 | – | – | – | – | – | – | – | – |
| KTINGSGSPHSKAQIGHT | 99.262 | 57.769 | 0.024 | 0.000 | 0.154 | 0.281 | 0.000 | – | – | – | – | – | – | – | – |
| KTINGYDSPHKSGQYQHT | – | – | – | – | – | – | – | – | – | – | – | – | – | – | Fold Enrichment relative to AAV9, Brain (Mouse) (brain; [10]): 10.524 fold; Fold Enrichment relative to AAV9, Brain (NHP) [1, 11]: 81.534 fold; Fold Enrichment relative to AAV9, DRG (NHP) ([1]; NGS fold-enrichment, NHP DRG): 0.000 fold; Fold Enrichment relative to AAV9, Heart (NHP) ([1]; NGS fold-enrichment, NHP heart): 0.036 fold; Fold Enrichment relative to AAV9, Liver DNA (NHP) [1, 12]: 0.000 fold; Fold Enrichment relative to AAV9, Liver RNA (NHP) [1, 13]: 0.000 fold; Fold Enrichment relative to AAV9, Muscle (NHP) [1, 14]: 0.000 fold |
| KSEKGSGSPHSKAQNQQT | 158.931 | 58.566 | 0.000 | 0.010 | 0.059 | 1.601 | 0.011 | – | – | – | – | – | – | – | – |
| KTINGHDSPHKSWVRQQT | – | – | – | – | – | – | – | – | – | – | – | – | – | – | Fold Enrichment relative to AAV9, Brain (Mouse) (brain; [10]): 11.687 fold; Fold Enrichment relative to AAV9, Brain (NHP) [1, 11]: 125.537 fold; Fold Enrichment relative to AAV9, DRG (NHP) ([1]; NGS fold-enrichment, NHP DRG): 0.000 fold; Fold Enrichment relative to AAV9, Heart (NHP) ([1]; NGS fold-enrichment, NHP heart): 0.033 fold; Fold Enrichment relative to AAV9, Liver DNA (NHP) [1, 12]: 0.174 fold; Fold Enrichment relative to AAV9, Liver RNA (NHP) [1, 13]: 0.291 fold; Fold Enrichment relative to AAV9, Muscle (NHP) [1, 14]: 0.000 fold |
| KTIDGSGSPHSKALNKQT | 74.626 | 58.992 | 0.000 | 0.267 | 0.056 | 0.000 | 0.000 | – | – | – | – | – | – | – | – |
| KTINGHDSPHKSRQSQHT | – | – | – | – | – | – | – | – | – | – | – | – | – | – | Fold Enrichment relative to AAV9, Brain (Mouse) (brain; [10]): 8.324 fold; Fold Enrichment relative to AAV9, Brain (NHP) [1, 11]: 88.544 fold; Fold Enrichment relative to AAV9, DRG (NHP) ([1]; NGS fold-enrichment, NHP DRG): 0.499 fold; Fold Enrichment relative to AAV9, Heart (NHP) ([1]; NGS fold-enrichment, NHP heart): 0.046 fold; Fold Enrichment relative to AAV9, Liver DNA (NHP) [1, 12]: 0.032 fold; Fold Enrichment relative to AAV9, Liver RNA (NHP) [1, 13]: 0.059 fold; Fold Enrichment relative to AAV9, Muscle (NHP) [1, 14]: 0.000 fold |
| KTVNGSGSPHSKSQNQQT | 58.000 | 52.395 | 0.033 | 0.077 | 0.175 | 0.105 | 0.013 | – | – | – | – | – | – | – | – |
| KTINAHDSPHKIGQNHQT | – | – | – | – | – | – | – | – | – | – | – | – | – | – | Fold Enrichment relative to AAV9, Brain (Mouse) (brain; [10]): 5.074 fold; Fold Enrichment relative to AAV9, Brain (NHP) [1, 11]: 106.832 fold; Fold Enrichment relative to AAV9, DRG (NHP) ([1]; NGS fold-enrichment, NHP DRG): 0.000 fold; Fold Enrichment relative to AAV9, Heart (NHP) ([1]; NGS fold-enrichment, NHP heart): 0.121 fold; Fold Enrichment relative to AAV9, Liver DNA (NHP) [1, 12]: 0.231 fold; Fold Enrichment relative to AAV9, Liver RNA (NHP) [1, 13]: 0.000 fold; Fold Enrichment relative to AAV9, Muscle (NHP) [1, 14]: 0.000 fold |
| KTELTSGSPHSKAQNQQT | – | – | – | – | – | – | – | 100.311 | 0.000 | 74.548 | 0.000 | 0.421 | 0.537 | 0.000 | – |
| KTINGLGSPHSKSQNQQT | – | – | – | – | – | – | – | 64.139 | 0.000 | 62.170 | 0.157 | 0.107 | 0.146 | 0.000 | – |
| KTERASGSPHSKAQNQQT | – | – | – | – | – | – | – | 115.550 | 0.000 | 103.669 | 0.000 | 0.070 | 0.127 | 0.000 | Fold Enrichment relative to AAV9, Brain (Mouse) (brain; [10]): 115.550 fold; Fold Enrichment relative to AAV9, Brain (NHP) [1, 11]: 103.669 fold; Fold Enrichment relative to AAV9, DRG (NHP) ([1]; NGS fold-enrichment, NHP DRG): 0.000 fold; Fold Enrichment relative to AAV9, Heart (NHP) ([1]; NGS fold-enrichment, NHP heart): 0.000 fold; Fold Enrichment relative to AAV9, Liver DNA (NHP) [1, 12]: 0.070 fold; Fold Enrichment relative to AAV9, Liver RNA (NHP) [1, 13]: 0.127 fold; Fold Enrichment relative to AAV9, Muscle (NHP) [1, 14]: 0.000 fold |
| KTINGSGSPHSKAQVRNT | 68.893 | 52.735 | 0.000 | 0.101 | 0.423 | 0.230 | 0.011 | – | – | – | – | – | – | – | – |
| KTDKMSGSPHSKAQNQQT | – | – | – | – | – | – | – | 88.234 | 0.000 | 68.167 | 0.000 | 0.205 | 0.017 | 0.000 | – |
| KTVHGSGSPHSKAQSQQT | 54.185 | 51.057 | 0.000 | 0.000 | 0.146 | 0.143 | 0.000 | – | – | – | – | – | – | – | – |
